Source: patent US20260184700A1, “PDK1 REGULATORY COMPOUND AND COMPOSITION CONTAINING THE SAME” (PROVIBIO CO., LTD., priority 2024, published 2026)

System: T cells isolated from mouse spleen
Assay: T cell proliferation inhibition, CFSE flow cytometry, CD3/CD28 activation
Assay type: cell-based
Conditions: CD3/CD28 activated, 3 days; for inhibition at 0.01 µM / inhibition at 0.1 µM / inhibition at 1 µM / inhibition at 10 µM / inhibition at 30 µM / inhibition at 50 µM: Mus musculus, T-cell, 72 h, read-out: Proliferation inhibition rate (%)
Procedure: To verify the T cell proliferation inhibitory effect of the compounds according to the present invention, the following experiment was performed based on flow cytometry analysis using carboxyfluorescein diacetate succinimidyl ester (CFSE), a fluorescent dye that binds to intracellular molecules via covalent bonds.
Spleens were extracted from 7-week-old C57BL/6 mice, ground, and then separated into single cells using a strainer (40 μm pore size, SPL). Red blood cells were removed using ACK (Ammonium-Chloride-Potassium) lysis buffer to isolate white blood cells.
Finally, using a MACS Magnetic Stand and LS column, T cells were isolated from the spleen.
The T cells isolated from the spleen were resuspended in 1 mL of free medium (RPMI-1640+200 U/mL penicillin+200 μg/mL streptomycin), and 0.3 μL of CFSE (10 mM) was added. The mixture was incubated at 37° C. for 5 minutes.
Free medium (10 mL) was added to stop the reaction, and the cells were centrifuged to obtain the cell pellet.
RPMI 1640 medium containing 10% FBS, 100 U/mL penicillin, 100 μg/mL streptomycin, and resuspended the cells. The cells were then seeded into a 96-well plate at a density of 2×10^5 cells per well and activated with CD3 and CD28 antibodies (0.5 μg/mL each) to activate T cells.
The compound diluted in DMSO was added at concentrations of 10 nM, 100 nM, 1 μM, 10 μM, 30 μM, and 50 μM, with three wells per concentration, and cultured at 37° C. and 5% CO2 for three days. The cells were then analyzed using a FACS Canto instrument.
The proliferation inhibition rate (%) was calculated using the following formula: […]

| SMILES | Proliferation inhibition rate (%) (compound 100 nM) | Proliferation inhibition rate (%) (compound 1 μM) | Proliferation inhibition rate (%) (compound 10 μM) | Proliferation inhibition rate (%) (compound 30 μM) | Proliferation inhibition rate (%) (compound 50 μM) | also measured |
| --- | --- | --- | --- | --- | --- | --- |
| Nc1ncccc1C(=O)NCCCCCCCCCCCCN1CCC2CCCCC2C1 (centres unmarked) [Compound 16, 2-Amino-N-(12-(octahydroisoquinolin-2 (1H)-yl)dodecyl)nicotinamide] |  |  |  |  |  | inhibition at 0.01 µM (compound 10 nM): 4.13%; inhibition at 0.1 µM (compound 100 nM): -2.93%; inhibition at 1 µM (compound 1 μM): 100%; inhibition at 10 µM (compound 10 μM): 100%; inhibition at 30 µM (compound 30 μM): 100%; inhibition at 50 µM (compound 50 μM): 100% |
| Nc1ncccc1C(=O)NCCCCCCCCCCCCN1CCc2ccccc2C1 [Compound 17, 2-Amino-N-(12-(3,4-dihydroisoquinolin-2(1H)-yl)dodecyl) nicotinamide] |  |  |  |  |  | Proliferation inhibition rate (%) (compound 10 nM, listed as PBK-2024-004, 0.01 µM): 0.00%; Proliferation inhibition rate (%) (compound 100 nM, listed as PBK-2024-004, 0.1 µM): −14.00%; Proliferation inhibition rate (%) (compound 1 μM, listed as PBK-2024-004, 1 µM): 100.00%; Proliferation inhibition rate (%) (compound 10 μM, listed as PBK-2024-004, 10 µM): 100.00% |
| CC1(C)CCN(CCCCCCCCCCCCNC(=O)c2cccnc2N)C1 [Compound 22, 2-Amino-N-(12-(3,3-dimethylpyrrolidin-1-yl)dodecyl) nicotinamide] | 100.00% | 100.00% | 100.00% | 100.00% | 100.00% | Proliferation inhibition rate (%) (compound 10 nM): −0.80% |
| COC1CCN(CCCCCCCCCCCCNC(=O)c2cccnc2N)C1 (centres unmarked) [Compound 32, 2-Amino-N-(12-(3-methoxypyrrolidin-1-yl)dodecyl) nicotinamide] |  |  |  |  |  | Proliferation inhibition rate (%) (compound 10 nM, listed as PBK-2024-024, 0.01 µM): 0.29% |
| CN(CCCCCCCCCCCCNC(=O)c1cccnc1N)C1CCCCC1 [Compound 34, 2-Amino-N-(12-(cyclohexyl(methyl)amino)dodecyl) nicotinamide] | 100.00% | 100.00% | 100.00% | 100.00% | 100.00% |  |
| CC1CN(CCCCCCCCCCCCNC(=O)c2cccnc2N)C(C)CN1.Cl (centres unmarked) [Compound 36, 2-Amino-N-(12-(2,5-dimethylpiperazin-1-yl)dodecyl) nicotinamide hydrochloride] | 100.00% | 100.00% | 100.00% | 100.00% | 100.00% |  |
| C[C@H]1CNCCN1CCCCCCCCCCCCNC(=O)c1cccnc1N.Cl [Compound 37, (S)-2-Amino-N-(12-(2-methylpiperazin-1-yl)dodecyl) nicotinamide hydrochloride] |  | 100.00% | 100.00% | 100.00% | 100.00% |  |
| CC1CCCN(CCCCCCCCCCCCNC(=O)c2cccnc2N)CC1 (centres unmarked) [Compound 39, 2-Amino-N-(12-(4-methylazepan-1-yl)dodecyl) nicotinamide] | 100.00% | 100.00% | 100.00% | 100.00% | 100.00% |  |
| CC1CN(C)C(CCCCCCCCCCCCNc2ccc3cncnc3n2)N1 (centres unmarked) [Compound 43] | 100.00% | 100.00% | 100.00% | 100.00% | 100.00% |  |
| Nc1ncccc1C(=O)NCCCCCCCCCCCCN1CCC(O)CC1 [Compound 48, 2-Amino-N-(12-(4-hydroxypiperidin-1-yl)dodecyl) nicotinamide] | 100.00% | 100.00% | 100.00% | 100.00% | 100.00% |  |
| CN(CCCCCCCCCCCCNC(=O)c1cccnc1N)C(C)(C)C [Compound 53, 2-Amino-N-(12-(tert-butyl(methyl)amino)dodecyl) nicotinamide] | 100.00% | 100.00% | 100.00% | 100.00% | 100.00% |  |
| Nc1ncccc1C(=O)NCCCCCCCCCCCCN1CCN(CCO)CC1 [Compound 54, 2-Amino-N-(12-(4-(2-hydroxyethyl)piperazin-1-yl)dodecyl) nicotinamide] | 100.00% | 100.00% | 100.00% | 100.00% | 100.00% |  |
| Cl.O=C(NCCCCCCCCCCCCN1CCNCC1)c1ccc(-c2ccccc2)o1 [Compound 90, 5-Phenyl-N-(12-(piperazin-1-yl)dodecyl) furan-2-carboxamide Hydrochloride] |  |  | 100.00% | 100.00% | 100.00% |  |
| COC1CCN(CCCCCCCCCCCCNC(=O)c2cccnc2N)CC1 [Compound 94, 2-amino-N-(12-(4-methoxypiperidin-1-yl)dodecyl) nicotinamide] | 100.00% | 100.00% | 100.00% | 100.00% | 100.00% |  |
| Nc1ncccc1C(=O)NCCCCCCCCCCCCN1CCN(C=O)CC1 [Compound 97, 2-amino-N-(12-(4-formylpiperazin-1-yl)dodecyl) nicotinamide] |  | 100.00% | 100.00% | 100.00% | 100.00% |  |
| CC(C)(C)OC(=O)NC1CCN(CCCCCCCCCCCCNC(=O)c2cccnc2N)CC1 [Compound 101, tert-Butyl (1-(12-(2-aminonicotinamido)dodecyl)piperidin-4-yl)carbamate] |  |  |  |  |  | inhibition at 0.01 µM (compound 10 nM): -0.15%; inhibition at 0.1 µM (compound 100 nM): 100%; inhibition at 1 µM (compound 1 μM): 100%; inhibition at 10 µM (compound 10 μM): 100%; inhibition at 30 µM (compound 30 μM): 100%; inhibition at 50 µM (compound 50 μM): 100% |
| CC(C)N1CCN(CCCCCCCCCCCCNC(=O)c2cccnc2N)CC1 [Compound 104, 2-Amino-N-(12-(4-isopropylpiperazin-1-yl)dodecyl) nicotinamide] | 100.00% | 100.00% | 100.00% | 100.00% | 100.00% | Proliferation inhibition rate (%) (compound 10 nM): 100.00% |
| CC(C)(C)OC(=O)N1CCN(CCCCCCCCCCCCNC(=O)c2cccnc2N)CC1 [Compound 111, tert-butyl-4-(12-(2-aminonicotinamido)dodecyl) piperazine-1-carboxylate] | 100.00% | 100.00% | 100.00% | 100.00% | 100.00% | Proliferation inhibition rate (%) (compound 10 nM): 0.00% |
| CN1CCN(CCCCCCCCCCCCNC(=O)c2cccnc2F)CC1 [Compound 121, 2-fluoro-N-(12-(4-methylpiperazin-1-yl)dodecyl) nicotinamide] | 0.00% | 0.00% | 30.00% | 100.00% | 100.00% | Proliferation inhibition rate (%) (compound 10 nM): 0.00% |
| Nc1ncccc1C(=O)NCCCCCCCCCCCCN1CC(F)(F)C1 [Compound 122, 2-Amino-N-(12-(3,3-difluoroazetidin-1-yl)dodecyl) nicotinamide] | 0.00% | 80.00% | 100.00% | 100.00% | 100.00% | Proliferation inhibition rate (%) (compound 10 nM): 0.00% |
| COC1CCN(CCCCCCCCCCCCNC(=O)c2cccnc2N)C1 (centres unmarked) [Compound 126, 2-amino-N-(12-(3-methoxypyrrolidin-1-yl)dodecyl) nicotinamide] | 100.00% | 100.00% | 100.00% | 100.00% | 100.00% | Proliferation inhibition rate (%) (compound 10 nM, listed as K-PB-48, 0.01 µM): 0.00% |
